Measured values: ChEMBL document CHEMBL3045810, “Synthesis and evaluation of 4-(substituted)-acetylamino-3-mercapto-5-(4-substituted) phenyl-1,2,4-triazole derivatives as antimicrobial agents” (2012)
The source made the active and inactive calls. The rule behind the calls is not given here.

Columns and labels:
[1] = system: Escherichia coli; assay: Antibacterial activity against Escherichia coli ATCC 8793 at 70 ug/ml after 24 hr by paper disk diffusion method; format: functional; conditions: ATCC 8793, 24 h, read-out: DIZ
[2] = system: Fusarium oxysporum; assay: Fungicidal activity against Fusarium oxysporum MTCC 2087; format: functional, organism-based
[3] = system: Aspergillus niger; assay: Fungicidal activity against Aspergillus niger MTCC 3323; format: functional, organism-based
[4] = system: Candida albicans; assay: Fungicidal activity against Candida albicans MTCC 227; format: functional, organism-based
[5] = system: Bacillus subtilis; assay: Bactericidal against Bacillus subtilis ATCC 6633; format: functional, organism-based
[6] = system: Staphylococcus aureus; assay: Antibacterial activity against Staphylococcus aureus ATCC 25923 at 50 ug/ml after 24 hr by paper disk diffusion method; format: functional; conditions: ATCC 25923, 24 h, read-out: DIZ
[7] = system: Staphylococcus aureus; assay: Antibacterial activity against Staphylococcus aureus ATCC 25923 at 70 ug/ml after 24 hr by paper disk diffusion method; format: functional; conditions: ATCC 25923, 24 h, read-out: DIZ
[8] = system: Pseudomonas aeruginosa; assay: Antibacterial activity against Pseudomonas aeruginosa ATCC 27853 at 30 ug/ml after 24 hr by paper disk diffusion method; format: functional; conditions: ATCC 27853, 24 h, read-out: DIZ
[9] = system: Pseudomonas aeruginosa; assay: Antibacterial activity against Pseudomonas aeruginosa ATCC 27853 at 50 ug/ml after 24 hr by paper disk diffusion method; format: functional; conditions: ATCC 27853, 24 h, read-out: DIZ
[10] = system: Pseudomonas aeruginosa; assay: Antibacterial activity against Pseudomonas aeruginosa ATCC 27853 at 70 ug/ml after 24 hr by paper disk diffusion method; format: functional; conditions: ATCC 27853, 24 h, read-out: DIZ
[11] = system: Escherichia coli; assay: Antibacterial activity against Escherichia coli ATCC 8793 at 30 ug/ml after 24 hr by paper disk diffusion method; format: functional; conditions: ATCC 8793, 24 h, read-out: DIZ
[12] = system: Escherichia coli; assay: Antibacterial activity against Escherichia coli ATCC 8793 at 50 ug/ml after 24 hr by paper disk diffusion method; format: functional; conditions: ATCC 8793, 24 h, read-out: DIZ
[13] = system: Staphylococcus aureus; assay: Bactericidal activity against Staphylococcus aureus ATCC 25923; format: functional, organism-based
[14] = system: Pseudomonas aeruginosa; assay: Bactericidal activity against Pseudomonas aeruginosa ATCC 27853; format: functional, organism-based
[15] = system: Escherichia coli; assay: Bactericidal activity against Escherichia coli ATCC 8793; format: functional, organism-based
[16] = system: Fusarium oxysporum; assay: Antifungal activity against Fusarium oxysporum MTCC 2087 at 30 ug/ml by paper disk diffusion method; format: functional; conditions: read-out: DIZ
[17] = system: Fusarium oxysporum; assay: Antifungal activity against Fusarium oxysporum MTCC 2087 at 50 ug/ml by paper disk diffusion method; format: functional; conditions: read-out: DIZ
[18] = system: Fusarium oxysporum; assay: Antifungal activity against Fusarium oxysporum MTCC 2087 at 70 ug/ml by paper disk diffusion method; format: functional; conditions: read-out: DIZ
[19] = system: Aspergillus niger; assay: Antifungal activity against Aspergillus niger MTCC 3323 at 30 ug/ml by paper disk diffusion method; format: functional; conditions: read-out: DIZ
[20] = system: Aspergillus niger; assay: Antifungal activity against Aspergillus niger MTCC 3323 at 50 ug/ml by paper disk diffusion method; format: functional; conditions: read-out: DIZ
[21] = system: Aspergillus niger; assay: Antifungal activity against Aspergillus niger MTCC 3323 at 70 ug/ml by paper disk diffusion method; format: functional; conditions: read-out: DIZ
[22] = system: Candida albicans; assay: Antifungal activity against Candida albicans MTCC 227 at 30 ug/ml by paper disk diffusion method; format: functional; conditions: read-out: DIZ
[23] = system: Candida albicans; assay: Antifungal activity against Candida albicans MTCC 227 at 50 ug/ml by paper disk diffusion method; format: functional; conditions: read-out: DIZ
[24] = system: Candida albicans; assay: Antifungal activity against Candida albicans MTCC 227 at 70 ug/ml by paper disk diffusion method; format: functional; conditions: read-out: DIZ
[25] = system: Bacillus subtilis; assay: Antibacterial activity against Bacillus subtilis ATCC 6633 at 30 ug/ml after 24 hr by paper disk diffusion method; format: functional; conditions: ATCC 6633, 24 h, read-out: DIZ
[26] = system: Bacillus subtilis; assay: Antibacterial activity against Bacillus subtilis ATCC 6633 at 50 ug/ml after 24 hr by paper disk diffusion method; format: functional; conditions: ATCC 6633, 24 h, read-out: DIZ
[27] = system: Bacillus subtilis; assay: Antibacterial activity against Bacillus subtilis ATCC 6633 at 70 ug/ml after 24 hr by paper disk diffusion method; format: functional; conditions: ATCC 6633, 24 h, read-out: DIZ
[28] = system: Staphylococcus aureus; assay: Antibacterial activity against Staphylococcus aureus ATCC 25923 at 30 ug/ml after 24 hr by paper disk diffusion method; format: functional; conditions: ATCC 25923, 24 h, read-out: DIZ

| SMILES | zone of inhibition at 70 µg/mL [1] | zone of inhibition at 50 µg/mL [6] | zone of inhibition at 70 µg/mL [7] | zone of inhibition at 30 µg/mL [8] | zone of inhibition at 50 µg/mL [9] | zone of inhibition at 70 µg/mL [10] | zone of inhibition at 30 µg/mL [11] | zone of inhibition at 50 µg/mL [12] | zone of inhibition at 30 µg/mL [16] | zone of inhibition at 50 µg/mL [17] | zone of inhibition at 70 µg/mL [18] | zone of inhibition at 30 µg/mL [19] | zone of inhibition at 50 µg/mL [20] | zone of inhibition at 70 µg/mL [21] | zone of inhibition at 30 µg/mL [22] | zone of inhibition at 50 µg/mL [23] | zone of inhibition at 70 µg/mL [24] | zone of inhibition at 30 µg/mL [25] | zone of inhibition at 50 µg/mL [26] | zone of inhibition at 30 µg/mL [28] | also measured |
| --- | --- | --- | --- | --- | --- | --- | --- | --- | --- | --- | --- | --- | --- | --- | --- | --- | --- | --- | --- | --- | --- |
| CCCCN(CCCC)CC(=O)Nn1c(S)nnc1-c1ccc(C)cc1 | 13.2 mm | 12.1 mm | 14 mm | 12.3 mm | 13.6 mm | 14.1 mm | 11.2 mm | 12.1 mm | 8.17 mm | 9.2 mm | 11.4 mm | 15.1 mm | 16.2 mm | 18 mm | 11.1 mm | 12.2 mm | 13.2 mm | 10.3 mm | 11.2 mm | 11.1 mm | Activity [2]: Active; Activity [3]: Active; Activity [4]: Active; Activity [5]: Active; Activity [13]: Active; Activity [14]: Active; Activity [15]: Active; zone of inhibition at 70 µg/mL [27]: 12.2 mm |
| Clc1ccccc1C(c1ccccc1)(c1ccccc1)n1ccnc1 [CLOTRIMAZOLE] |  |  |  |  |  |  |  |  | 19.3 mm |  |  | 22.6 mm |  |  | 21.9 mm |  |  |  |  |  |  |
| COc1ccc(-c2nnc(S)n2NC(=O)CN(C(C)C)C(C)C)cc1 | 12.4 mm | 9.26 mm | 10.3 mm | 11.1 mm | 12.3 mm | 13.3 mm | 9.43 mm | 10.3 mm | 7.26 mm | 8.13 mm | 9.06 mm | 10.1 mm | 11.3 mm | 13 mm | 11.2 mm | 12.1 mm | 13.8 mm | 8.5 mm | 9.3 mm | 8.2 mm | Activity [2]: inactive; Activity [3]: inactive; Activity [4]: inactive; Activity [5]: Active; Activity [13]: Active; Activity [14]: Active; Activity [15]: Active; zone of inhibition at 70 µg/mL [27]: 10.5 mm |
| CCCN(CCC)CC(=O)Nn1c(S)nnc1-c1ccc(C)cc1 | 11.1 mm | 9.33 mm | 10 mm | 9.56 mm | 10.2 mm | 11.1 mm | 9.33 mm | 10.3 mm | 7.26 mm | 8.4 mm | 9.96 mm | 11.2 mm | 12.3 mm | 14.4 mm | 9.13 mm | 10.5 mm | 11.3 mm | 8.93 mm | 9.86 mm | 8.2 mm | Activity [2]: Active; Activity [3]: Active; Activity [4]: Active; Activity [5]: Active; Activity [13]: Active; Activity [14]: Active; Activity [15]: Active; zone of inhibition at 70 µg/mL [27]: 10.1 mm |
| Cc1ccc(-c2nnc(S)n2NC(=O)CN(C(C)C)C(C)C)cc1 | 10.5 mm | 8.2 mm | 9.1 mm | 8.3 mm | 9.26 mm | 10.1 mm | 8.2 mm | 9.2 mm | 6.06 mm | 7.17 mm | 8.33 mm | 10.1 mm | 11 mm | 12.2 mm | 8.03 mm | 9.16 mm | 10.1 mm | 7.2 mm | 8.23 mm | 7.3 mm | Activity [2]: inactive; Activity [3]: inactive; Activity [4]: inactive; Activity [5]: Active; Activity [13]: Active; Activity [14]: Active; Activity [15]: Active; zone of inhibition at 70 µg/mL [27]: 9.23 mm |
| NCC[C@H](O)C(=O)N[C@@H]1C[C@H](N)[C@@H](O[C@H]2O[C@H](CN)[C@@H](O)[C@H](O)[C@H]2O)[C@H](O)[C@H]1O[C@H]1O[C@H](CO)[C@@H](O)[C@H](N)[C@H]1O [AMIKACIN] |  |  |  | 22.1 mm |  |  | 21.3 mm |  |  |  |  |  |  |  |  |  |  |  |  |  |  |
| CCCCN(C)CC(=O)Nn1c(S)nnc1-c1ccc(OC)cc1 | 9.6 mm | 11 mm | 13.5 mm | 9.2 mm | 10.4 mm | 12.2 mm | 7.2 mm | 8.63 mm | 6.16 mm | 6.26 mm | 7.23 mm | 10.6 mm | 11.1 mm | 13.2 mm | 11.1 mm | 12.2 mm | 14.2 mm | 9.27 mm | 10.2 mm | 10.2 mm | Activity [2]: Active; Activity [3]: Active; Activity [4]: Active; Activity [5]: Active; Activity [13]: Active; Activity [14]: Active; Activity [15]: Active; zone of inhibition at 70 µg/mL [27]: 11.2 mm |
| CCCCCN(CCCCC)CC(=O)Nn1c(S)nnc1-c1ccc(C)cc1 | 8.13 mm | 7.1 mm | 8.16 mm | 7.13 mm | 8.13 mm | 9.17 mm | 6.26 mm | 7.16 mm | 7.07 mm | 8.23 mm | 9.13 mm | 9.06 mm | 11.3 mm | 12.1 mm | 7.26 mm | 8.1 mm | 9.23 mm | 6.46 mm | 7.2 mm | 6.03 mm | Activity [2]: inactive; Activity [3]: inactive; Activity [4]: inactive; Activity [5]: Active; Activity [13]: Active; Activity [14]: Active; Activity [15]: Active; zone of inhibition at 70 µg/mL [27]: 8.23 mm |
| CN[C@H](CC(C)C)C(=O)N[C@H]1C(=O)N[C@@H](CC(N)=O)C(=O)N[C@H]2C(=O)N[C@H]3C(=O)N[C@H](C(=O)N[C@H](C(=O)O)c4cc(O)cc(O)c4-c4cc3ccc4O)[C@H](O)c3ccc(c(Cl)c3)Oc3cc2cc(c3O[C@@H]2O[C@H](CO)[C@@H](O)[C@H](O)[C@H]2O[C@H]2C[C@](C)(N)[C@H](O)[C@H](C)O2)Oc2ccc(cc2Cl)[C@H]1O [VANCOMYCIN] |  |  |  |  |  |  |  |  |  |  |  |  |  |  |  |  |  | 17.4 mm |  | 18.2 mm |  |
| CCCCN(C)CC(=O)Nn1c(S)nnc1-c1ccc(C)cc1 | 9.2 mm | 8.23 mm | 9.26 mm | 8.2 mm | 9.33 mm | 10.3 mm | 7.26 mm | 8.56 mm | 6.03 mm | 7.2 mm | 8.13 mm | 7 mm | 8.26 mm | 9.17 mm | 8.16 mm | 9.23 mm | 10.1 mm | 7.43 mm | 8.2 mm | 7.4 mm | zone of inhibition at 70 µg/mL [27]: 9.23 mm |
